Experimental data published in ChEMBL document CHEMBL3611972, “Leishmanicidal, antiproteolytic, and mutagenic evaluation of alkyltriazoles and alkylphosphocholines” (Eur J Med Chem, 2015).

Tests used:
[1] = Mutagenicity in CHOK1 cells assessed as induction of chromosomal DNA mutation by measuring nuclear division index level at 6.41 to 25.63 incubated for 3 hrs by fluorescence microscopy; type: toxicity, cell-based, Cricetulus griseus; conditions: chinese hamster, cho-k1, 3 h
Salmonella typhimurium [2] = test: Mutagenicity in Salmonella typhimurium TA98 assessed as mutagenicity index at 296.15 uM/plate incubated for 90 mins at 37 degC in absence of liver S9 fractions by Ames test relative to untreated control; type: toxicity, organism-based; conditions: salmonella enterica subsp. enterica serovar typhimurium, 1.5 h
Salmonella typhimurium [3] = test: Mutagenicity in Salmonella typhimurium TA98 assessed as mutagenicity index at 570.37 uM/plate incubated for 90 mins at 37 degC in absence of liver S9 fractions by Ames test relative to untreated control; type: toxicity, organism-based; conditions: salmonella enterica subsp. enterica serovar typhimurium, 1.5 h
Salmonella typhimurium [4] = test: Mutagenicity in Salmonella typhimurium TA100 assessed as mutagenicity index at 150.98 uM/plate incubated for 90 mins at 37 degC in absence of liver S9 fractions by Ames test relative to untreated control; type: toxicity, organism-based; conditions: salmonella enterica subsp. enterica serovar typhimurium, 1.5 h
Salmonella typhimurium [5] = test: Mutagenicity in Salmonella typhimurium TA100 assessed as mutagenicity index at 570.37 uM/plate incubated for 90 mins at 37 degC in absence of liver S9 fractions by Ames test relative to untreated control; type: toxicity, organism-based; conditions: salmonella enterica subsp. enterica serovar typhimurium, 1.5 h
Salmonella typhimurium [6] = test: Mutagenicity in Salmonella typhimurium TA100 assessed as mutagenicity index at 435.85 uM/plate incubated for 90 mins at 37 degC in presence of liver S9 fractions by Ames test relative to untreated control; type: toxicity, organism-based; conditions: salmonella enterica subsp. enterica serovar typhimurium, s9, 1.5 h
Salmonella typhimurium [7] = test: Mutagenicity in Salmonella typhimurium TA100 assessed as mutagenicity index at 570.37 uM/plate incubated for 90 mins at 37 degC in presence of liver S9 fractions by Ames test relative to untreated control; type: toxicity, organism-based; conditions: salmonella enterica subsp. enterica serovar typhimurium, s9, 1.5 h
Salmonella typhimurium [8] = test: Mutagenicity in Salmonella typhimurium TA100 assessed as mutagenicity index at 700.00 uM/plate incubated for 90 mins at 37 degC in presence of liver S9 fractions by Ames test relative to untreated control; type: toxicity, organism-based; conditions: salmonella enterica subsp. enterica serovar typhimurium, s9, 1.5 h
Salmonella typhimurium [9] = test: Mutagenicity in Salmonella typhimurium TA97a assessed as mutagenicity index at 296.15 uM/plate incubated for 90 mins at 37 degC in absence of liver S9 fractions by Ames test relative to untreated control; type: toxicity, organism-based; conditions: salmonella enterica subsp. enterica serovar typhimurium, 1.5 h
Salmonella typhimurium [10] = test: Mutagenicity in Salmonella typhimurium TA97a assessed as mutagenicity index at 435.85 uM/plate incubated for 90 mins at 37 degC in absence of liver S9 fractions by Ames test relative to untreated control; type: toxicity, organism-based; conditions: salmonella enterica subsp. enterica serovar typhimurium, 1.5 h
Salmonella typhimurium [11] = test: Mutagenicity in Salmonella typhimurium TA97a assessed as mutagenicity index at 570.37 uM/plate incubated for 90 mins at 37 degC in absence of liver S9 fractions by Ames test relative to untreated control; type: toxicity, organism-based; conditions: salmonella enterica subsp. enterica serovar typhimurium, 1.5 h
Salmonella typhimurium [12] = test: Mutagenicity in Salmonella typhimurium TA97a assessed as mutagenicity index at 700.00 uM/plate incubated for 90 mins at 37 degC in absence of liver S9 fractions by Ames test relative to untreated control; type: toxicity, organism-based; conditions: salmonella enterica subsp. enterica serovar typhimurium, 1.5 h
Salmonella typhimurium [13] = test: Mutagenicity in Salmonella typhimurium TA97a assessed as mutagenicity index at 296.15 uM/plate incubated for 90 mins at 37 degC in presence of liver S9 fractions by Ames test relative to untreated control; type: toxicity, organism-based; conditions: salmonella enterica subsp. enterica serovar typhimurium, s9, 1.5 h
Salmonella typhimurium [14] = test: Mutagenicity in Salmonella typhimurium TA97a assessed as mutagenicity index at 435.85 uM/plate incubated for 90 mins at 37 degC in presence of liver S9 fractions by Ames test relative to untreated control; type: toxicity, organism-based; conditions: salmonella enterica subsp. enterica serovar typhimurium, s9, 1.5 h
Salmonella typhimurium [15] = test: Mutagenicity in Salmonella typhimurium TA102 assessed as mutagenicity index at 296.15 uM/plate incubated for 90 mins at 37 degC in absence of liver S9 fractions by Ames test relative to untreated control; type: toxicity, organism-based; conditions: salmonella enterica subsp. enterica serovar typhimurium, 1.5 h
Salmonella typhimurium [16] = test: Mutagenicity in Salmonella typhimurium TA102 assessed as mutagenicity index at 435.85 uM/plate incubated for 90 mins at 37 degC in presence of liver S9 fractions by Ames test relative to untreated control; type: toxicity, organism-based; conditions: salmonella enterica subsp. enterica serovar typhimurium, s9, 1.5 h
Salmonella typhimurium [17] = test: Mutagenicity in Salmonella typhimurium TA98 assessed as mutagenicity index at 1454.55 uM/plate incubated for 90 mins at 37 degC in absence of liver S9 fractions by Ames test relative to control; type: toxicity, organism-based; conditions: salmonella enterica subsp. enterica serovar typhimurium, 1.5 h
Salmonella typhimurium [18] = test: Mutagenicity in Salmonella typhimurium TA98 assessed as mutagenicity index at 1454.55 uM/plate incubated for 90 mins at 37 degC in presence of liver S9 fractions by Ames test relative to control; type: toxicity, organism-based; conditions: salmonella enterica subsp. enterica serovar typhimurium, s9, 1.5 h
Salmonella typhimurium [19] = test: Mutagenicity in Salmonella typhimurium TA100 assessed as mutagenicity index at 905.66 uM/plate incubated for 90 mins at 37 degC in presence of liver S9 fractions by Ames test relative to control; type: toxicity, organism-based; conditions: salmonella enterica subsp. enterica serovar typhimurium, s9, 1.5 h
Salmonella typhimurium [20] = test: Mutagenicity in Salmonella typhimurium TA97a assessed as mutagenicity index at 616.38 uM/plate incubated for 90 mins at 37 degC in absence of liver S9 fractions by Ames test relative to control; type: toxicity, organism-based; conditions: salmonella enterica subsp. enterica serovar typhimurium, 1.5 h
Salmonella typhimurium [21] = test: Mutagenicity in Salmonella typhimurium TA97a assessed as mutagenicity index at 905.66 uM/plate incubated for 90 mins at 37 degC in absence of liver S9 fractions by Ames test relative to control; type: toxicity, organism-based; conditions: salmonella enterica subsp. enterica serovar typhimurium, 1.5 h
Salmonella typhimurium [22] = test: Mutagenicity in Salmonella typhimurium TA97a assessed as mutagenicity index at 616.38 uM/plate incubated for 90 mins at 37 degC in presence of liver S9 fractions by Ames test relative to control; type: toxicity, organism-based; conditions: salmonella enterica subsp. enterica serovar typhimurium, s9, 1.5 h
Salmonella typhimurium [23] = test: Mutagenicity in Salmonella typhimurium TA97a assessed as mutagenicity index at 1185.19 uM/plate incubated for 90 mins at 37 degC in presence of liver S9 fractions by Ames test relative to control; type: toxicity, organism-based; conditions: salmonella enterica subsp. enterica serovar typhimurium, s9, 1.5 h
Salmonella typhimurium [24] = test: Mutagenicity in Salmonella typhimurium TA102 assessed as mutagenicity index at 313.73 uM/plate incubated for 90 mins at 37 degC in absence of liver S9 fractions by Ames test relative to control; type: toxicity, organism-based; conditions: salmonella enterica subsp. enterica serovar typhimurium, 1.5 h
[25] = Mutagenicity in CHOK1 cells assessed as induction of chromosomal DNA mutation by measuring nuclear division index level at 14.51 to 58.04 incubated for 3 hrs by fluorescence microscopy; type: toxicity, cell-based, Cricetulus griseus; conditions: chinese hamster, cho-k1, 3 h
Salmonella typhimurium [26] = test: Mutagenicity in Salmonella typhimurium TA98 assessed as mutagenicity index at 313.73 uM/plate incubated for 90 mins at 37 degC in absence of liver S9 fractions by Ames test relative to control; type: toxicity, organism-based; conditions: salmonella enterica subsp. enterica serovar typhimurium, 1.5 h

With `CS(=O)(=O)OCCCCCCCCCCCCn1cc(CCCO)nn1` the Activity [1] was “Non-toxic”, the Activity_index (Salmonella typhimurium [2]) was 1.2 and the Activity_index (Salmonella typhimurium [3]) was 1.3. For the same molecule, the Activity_index (Salmonella typhimurium [4]) was 1.1, the Activity_index (Salmonella typhimurium [5]) was 1.3 and the Activity_index (Salmonella typhimurium [6]) was 0.7. For the same molecule, the Activity_index (Salmonella typhimurium [7]) was 0.8, the Activity_index (Salmonella typhimurium [8]) was 0.9 and the Activity_index (Salmonella typhimurium [9]) was 1.1. It also gave an Activity_index (Salmonella typhimurium [10]) of 1.2, an Activity_index (Salmonella typhimurium [11]) of 0.9 and an Activity_index (Salmonella typhimurium [12]) of 1.1. It also gave an Activity_index (Salmonella typhimurium [13]) of 0.9, an Activity_index (Salmonella typhimurium [14]) of 0.9 and an Activity_index (Salmonella typhimurium [15]) of 0.9. It also gave an Activity_index (Salmonella typhimurium [16]) of 1.1.

With `CCOC(=O)c1cn(CCCCCCCCCOS(C)(=O)=O)nn1` the Activity_index (Salmonella typhimurium [17]) was 1.4, the Activity_index (Salmonella typhimurium [18]) was 0.8 and the Activity_index (Salmonella typhimurium [19]) was 1. It also gave an Activity_index (Salmonella typhimurium [20]) of 1.6, an Activity_index (Salmonella typhimurium [21]) of 1.8 and an Activity_index (Salmonella typhimurium [22]) of 0.9. The Activity_index (Salmonella typhimurium [23]) was 0.7, the Activity_index (Salmonella typhimurium [24]) was 1.2 and the Activity [25] was “Non-toxic”. It also gave an Activity_index (Salmonella typhimurium [26]) of 1.5.
